Molecules are shown by their SMILES.

What all share (assay type): cell-based
For assay [1], the system named is RKO p27 or p21 induced (arrested) colon adenocarcinoma cells. In words: Alamar Blue cell viability assay, RKO p27 or p21 induced (arrested). As to conditions: Homo sapiens, RKOp27, Table B2, cells arrested by Ponasterone A, 72 hours, read-out: −log EC50 RKO p27 or p21 induced (arrested) (converted). The procedure: (§1) To determine the cell cycle specific mode of action, subclones of RKO colon adenocarcinoma cells (RKOp21 or RKOp27 as described by Schmidt et al. in Oncogene 19, 2423-2429; 2000) are seeded into 96 well flat bottom plates at a density of 16000 cells per well in a volume of 50 μl per well in DMEM growth medium with 10% FCS containing 10 μM Ponasterone A. 24 hours after seeding the 50 μl each of the compound dilutions in DMEM medium are added into each well of the 96-well plate. Each compound dilution is tested as triplicates. Wells containing untreated control cells are filled with 50 μl DMEM medium containing 1% DMSO. The cells are then incubated with the substances for 72 hours at 37° C. in a humidified atmosphere containing 5% carbon dioxide. To determine the viability of the cells, 10 μl of an Alamar Blue solution (Biosource) are added and the fluorescence is measured at an extinction of 544 nm and an emission of 590 nm. For the calculation of the cell viability the emission value from untreated cells is set as 100% viability and the emission rates of treated cells are set in relation to the values of untreated cells. Viabilities are expressed as % values. The Graphpad Prism program (GraphPad Software, Inc) is used for the calculation of EC50 values out of the obtained dose-response curves. Viability is compared of proliferating cells grown in the absence of the inducer Ponasterone A, versus viability of cells arrested by the expression of ectopic p27Kip1 induced by Ponasterone A.
(§2) Representative values for anti-proliferation/cytotoxicity [measured as −log EC50 (mol/l)] determined in the aforementioned assays follow from the following tables B1, B2 and B3, in which the numbers of the compounds correspond to the numbers of the examples.
Background: Alamar Blue is a resazurin reagent that responds to reducing activity.

In assay [2] the test system is RKO p27 or p21 uninduced (proliferating) colon adenocarcinoma cells. In words: Alamar Blue cell viability assay, RKO p27 or p21 uninduced (proliferating). The settings on record: Homo sapiens, RKOp27, 72 h, Table B2, anti-proliferative/cytotoxic activity, read-out: −log EC50 RKO p27 or p21 uninduced (proliferating) (converted). On the procedure: The anti-proliferative/cytotoxic activity of the compounds described herein can be tested on subclones of RKO human colon adenocarcinoma cells (Schmidt et al., Oncogene 19, 2423-2429; 2000) using the Alamar Blue cell viability assay (described in O'Brien et al. Eur J Biochem 267, 5421-5426, 2000). The compounds are dissolved as 10 mM solutions in DMSO and subsequently diluted in semi-logarithmic steps. DMSO dilutions are further diluted 1:100 into Dulbecco's modified Eagle's medium (DMEM) containing 10% fetal calf serum to a final concentration twice as much as the final concentration in the test. RKO subclones are seeded into 96 well flat bottom plates at a density of 4000 cells per well in a volume of 50 μl per well. 24 hours after seeding the 50 μl each of the compound dilutions in DMEM medium are added into each well of the 96 well plate. Each compound dilution is tested as triplicates. Wells containing untreated control cells are filled with 50 μl DMEM medium containing 1% DMSO. The cells are then incubated with the substances for 72 hours at 37° C. in a humidified atmosphere containing 5% carbon dioxide. To determine the viability of the cells, 10 μl of an Alamar Blue solution (Biosource) are added and the fluorescence is measured at an extinction of 544 nm and an emission of 590 nm. For the calculation of the cell viability the emission value from untreated cells is set as 100% viability and the emission rates of treated cells are set in relation to the values of untreated cells. Viabilities are expressed as % values. The Graphpad Prism program is used for the calculation of EC50 values for anti-proliferative/cytotoxic activity out of the obtained dose-response curves.
as §1, §2

For assay [3], the system named is RKO p21 uninduced (proliferating) colon adenocarcinoma cells. Put plainly: Alamar Blue cell viability assay, RKO p21 uninduced (proliferating). The settings on record: Homo sapiens, Table B3, anti-proliferative/cytotoxic activity, 72 hours, read-out: −log EC50 RKO p21 uninduced (proliferating) (converted). In outline:
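Viability read by Alamar Blue fluorescence (ex 544, em 590 nm), normalised to untreated wells, after 72 h, 37° C, 5% CO2 compound exposure in triplicate. Cells were uninduced (no Ponasterone A), proliferating RKO colon carcinoma p27 or p21 subclones in DMEM with 10% FCS; values are −log EC50 (mol/l).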

What is called EC50 is the concentration giving half of the maximal effect. As for `CNCCCN1C(=O)N2[C@H](c3cccc(O)c3)c3[nH]c4ccc(OC)cc4c3C[C@@]2(C)C1=O` (racemic) [Example 76, (3aSR,10RS)-10-(3-Hydroxy-phenyl)-6-methoxy-3a-methyl-2-(3-methylamino-propyl)-3a,4,9,10-tetrahydro-2,9,10a-triaza-cyclopenta[b]fluorene-1,3-dione], the values for the EC50 in assay [1] and in assay [2] were at least 3160 nM and at most 39.8 nM, respectively.

Regarding `C=CCNCCN1C(=O)N2[C@H](c3cccc(O)c3)c3[nH]c4ccc(Cl)cc4c3C[C@@]2(C)C1=O` (racemic) [Example 115, (3aSR,10RS)-2-(2-Allylamino-ethyl)-6-chloro-10-(3-hydroxy-phenyl)-3a-methyl-3a,4,9,10-tetrahydro-2,9,10a-triaza-cyclopenta[b]fluorene-1,3-dione], the values for the EC50 in assay [1] and in assay [2] were at least 316 nM and at most 39.8 nM, respectively.

Regarding `C[C@@]12Cc3c([nH]c4ccc(Cl)cc34)[C@@H](c3cccc(O)c3)N1C(=O)N(CCN1CCOCC1)C2=O` (racemic) [Example 120, (3aSR,10RS)-6-Chloro-10-(3-hydroxy-phenyl)-3a-methyl-2-(2-morpholin-4-ylethyl)-3a,4,9,10-tetrahydro-2,9,10a-triaza-cyclopenta[b]fluorene-1,3-dione], the EC50 in assay [1] is at least 316 nM; in assay [2] it was 39.8 to 251 nM.

For the compound `COc1ccc2[nH]c3c(c2c1)C[C@@]1(C)C(=O)N(CCN2CCCCC2)C(=O)N1[C@@H]3c1cccc(O)c1` (racemic) [Example 71, (3aSR,10RS)-10-(3-Hydroxy-phenyl)-6-methoxy-3a-methyl-2-(2-piperidin-1-yl-ethyl)-3a,4,9,10-tetrahydro-2,9,10a-triaza-cyclopenta[b]fluorene-1,3-dione], the figures for the EC50 in assay [1] and in assay [2] were at least 3160 nM and at most 39.8 nM, respectively.

In the case of `CCN(CC)CCN1C(=O)N2[C@H](c3cccc(O)c3)c3[nH]c4ccc(OC)cc4c3C[C@@]2(C)C1=O` (racemic) [Example 69, (3aSR,10RS)-2-(2-Diethylamino-ethyl)-10-(3-hydroxy-phenyl)-6-methoxy-3a-methyl-3a,4,9,10-tetrahydro-2,9,10a-triaza-cyclopenta[b]fluorene-1,3-dione], the results for the EC50 in assay [1] and in assay [2] were at least 3160 nM and at most 39.8 nM, respectively.

Turning to `C#CC(C)NCCCN1C(=O)N2[C@H](c3cccc(O)c3)c3[nH]c4ccc(Cl)cc4c3C[C@@]2(C)C1=O` (mixture of isomers) [Example 136, (3aSR,10RS)-6-Chloro-10-(3-hydroxy-phenyl)-3a-methyl-2-[3-((R and S)1-methyl-prop-2-ynylamino)-propyl]-3a,4,9,10-tetrahydro-2,9,10a-triaza-cyclopenta[b]fluorene-1,3-dione], the EC50 in assay [1] is at least 3160 nM; in assay [2] it was at most 39.8 nM.

In the case of `COc1ccc2[nH]c3c(c2c1)C[C@@]1(C)C(=O)N(CCN2CC=CCC2)C(=O)N1[C@@H]3c1cccc(O)c1` (racemic) [Example 68, (3aSR,10RS)-2-[2-(3,6-Dihydro-2H-pyridin-1-yl)-ethyl]-10-(3-hydroxy-phenyl)-6-methoxy-3a-methyl-3a,4,9,10-tetrahydro-2,9,10a-triaza-cyclopenta[b]fluorene-1,3-dione], the EC50 in assay [1] was at least 3160 nM; in assay [2], at most 39.8 nM.

`COc1ccc2[nH]c3c(c2c1)C[C@@]1(C)C(=O)N(CCN2CCC(C)CC2)C(=O)N1[C@@H]3c1cccc(O)c1` (racemic) [Example 75, (3aSR,10RS)-10-(3-Hydroxy-phenyl)-6-methoxy-3a-methyl-2-[2-(4-methyl-piperidin-1-yl)-ethyl]-3a,4,9,10-tetrahydro-2,9,10a-triaza-cyclopenta[b]fluorene-1,3-dione]: the EC50 was at least 3160 nM in assay [1] and 39.8 to 251 nM in assay [2].

Turning to `CN(C)CCCN1C(=O)N2[C@H](c3cccc(O)c3)c3[nH]c4cc(F)c(Cl)cc4c3C[C@@]2(C)C1=O` (racemic) [Example 335, (3aSR,10RS)-6-Chloro-2-(3-dimethylamino-propyl)-7-fluoro-10-(3-hydroxy-phenyl)-3a-methyl-3a,4,9,10-tetrahydro-2,9,10a-triaza-cyclopenta[b]fluorene-1,3-dione], the EC50 in assay [3] was 39.8 to 251 nM.

Regarding `C#CCN(C)CCN1C(=O)N2[C@H](c3cccc(O)c3)c3[nH]c4ccc(Br)cc4c3C[C@@]2(C)C1=O` (racemic) [Example 382, (3aSR,10RS)-6-Bromo-10-(3-hydroxy-phenyl)-3a-methyl-2-[2-(methyl-prop-2-ynyl-amino)-ethyl]-3a,4,9,10-tetrahydro-2,9,10a-triaza-cyclopenta[b]fluorene-1,3-dione], the EC50 in assay [3] was 39.8 to 251 nM.

`C[C@@]12Cc3c([nH]c4cc(F)c(Cl)cc34)[C@@H](c3cccc(O)c3)N1C(=O)N(CCCN1CC=CC1)C2=O` (racemic) [Example 477, (3aSR,10RS)-6-Chloro-2-[3-(2,5-dihydro-pyrrol-1-yl)-propyl]-7-fluoro-10-(3-hydroxy-phenyl)-3a-methyl-3a,4,9,10-tetrahydro-2,9,10a-triaza-cyclopenta[b]fluorene-1,3-dione]: the EC50 in assay [3] is 39.8 to 251 nM.

`C[C@@]12Cc3c([nH]c4cc(F)c(Cl)cc34)[C@@H](c3cccc(O)c3)N1C(=O)N(CCN1CC=CC1)C2=O` (racemic) [Example 355, (3aSR,10RS)-6-Chloro-2-[2-(2,5-dihydro-pyrrol-1-yl)-ethyl]-7-fluoro-10-(3-hydroxy-phenyl)-3a-methyl-3a,4,9,10-tetrahydro-2,9,10a-triaza-cyclopenta[b]fluorene-1,3-dione]: the EC50 in assay [3] was 39.8 to 251 nM.

As for `COc1ccc2[nH]c3c(c2c1)C[C@@]1(C)C(=O)N(CCCN2CCN(C(C)=O)CC2)C(=O)N1[C@@H]3c1cccc(O)c1` (racemic) [Example 151, (3aSR,10RS)-2-[3-(4-Acetyl-piperazin-1-yl)-propyl]-10-(3-hydroxy-phenyl)-6-methoxy-3a-methyl-3a,4,9,10-tetrahydro-2,9,10a-triaza-cyclopenta[b]fluorene-1,3-dione], the EC50 in assay [3] was 39.8 to 251 nM.

For `COCCNCCN1C(=O)N2[C@H](c3cccc(O)c3)c3[nH]c4ccc(OC(F)F)cc4c3C[C@@]2(C)C1=O` (racemic) [Example 271, (3aSR,10RS)-6-(1,1-Difluoro-methoxy)-10-(3-hydroxy-phenyl)-2-[2-(2-methoxy-ethylamino)-ethyl]-3a-methyl-3a,4,9,10-tetrahydro-2,9,10a-triaza-cyclopenta[b]fluorene-1,3-dione], the EC50 in assay [3] was at most 39.8 nM.

Take `COc1cc2c3c([nH]c2cc1F)[C@@H](c1cccc(O)c1)N1C(=O)N(CCCN2CCOCC2)C(=O)[C@]1(C)C3` (racemic) [Example 321, (3aSR,10RS)-7-Fluoro-10-(3-hydroxy-phenyl)-6-methoxy-3a-methyl-2-(3-morpholin-4-yl-propyl)-3a,4,9,10-tetrahydro-2,9,10a-triaza-cyclopenta[b]fluorene-1,3-dione]: the EC50 in assay [3] is 39.8 to 251 nM.

For `COc1cc2c3c([nH]c2cc1F)[C@@H](c1cccc(O)c1)N1C(=O)N(CCN2CCCC2)C(=O)[C@]1(C)C3` (racemic) [Example 261, (3aSR,10RS)-7-Fluoro-10-(3-hydroxy-phenyl)-6-methoxy-3a-methyl-2-(2-pyrrolidin-1-yl-ethyl)-3a,4,9,10-tetrahydro-2,9,10a-triaza-cyclopenta[b]fluorene-1,3-dione], the EC50 in assay [3] is 39.8 to 251 nM.
